In patent US8394796B2, “Bicyclic pyrimidine PI3K inhibitor compounds selective for P110 delta, and methods of use” (Genentech, Inc., priority 2009, dated 2013):
Like-named read-outs stand apart in the source and are kept apart here.

How the values were obtained:
[1] = target: T1, p110δ/p85α (PI3K p110 delta) (Homo sapiens, UniProt O00329); assay: PI3K isoform inhibition assay (fluorescence polarization PIP3 displacement; alternatively radiometric), p110 delta; format: biochemical; settings: for IC50: PI3K p110 delta binding IC50; for IC50 p110 alpha/IC50 p110 delta: delta/alpha selectivity: ratio of p110 alpha IC50 to p110 delta IC50
T1 construct: purchased Upstate Group, Millipore; Dundee, UK
T1 sequence (O00329 whole entry, canonical isoform): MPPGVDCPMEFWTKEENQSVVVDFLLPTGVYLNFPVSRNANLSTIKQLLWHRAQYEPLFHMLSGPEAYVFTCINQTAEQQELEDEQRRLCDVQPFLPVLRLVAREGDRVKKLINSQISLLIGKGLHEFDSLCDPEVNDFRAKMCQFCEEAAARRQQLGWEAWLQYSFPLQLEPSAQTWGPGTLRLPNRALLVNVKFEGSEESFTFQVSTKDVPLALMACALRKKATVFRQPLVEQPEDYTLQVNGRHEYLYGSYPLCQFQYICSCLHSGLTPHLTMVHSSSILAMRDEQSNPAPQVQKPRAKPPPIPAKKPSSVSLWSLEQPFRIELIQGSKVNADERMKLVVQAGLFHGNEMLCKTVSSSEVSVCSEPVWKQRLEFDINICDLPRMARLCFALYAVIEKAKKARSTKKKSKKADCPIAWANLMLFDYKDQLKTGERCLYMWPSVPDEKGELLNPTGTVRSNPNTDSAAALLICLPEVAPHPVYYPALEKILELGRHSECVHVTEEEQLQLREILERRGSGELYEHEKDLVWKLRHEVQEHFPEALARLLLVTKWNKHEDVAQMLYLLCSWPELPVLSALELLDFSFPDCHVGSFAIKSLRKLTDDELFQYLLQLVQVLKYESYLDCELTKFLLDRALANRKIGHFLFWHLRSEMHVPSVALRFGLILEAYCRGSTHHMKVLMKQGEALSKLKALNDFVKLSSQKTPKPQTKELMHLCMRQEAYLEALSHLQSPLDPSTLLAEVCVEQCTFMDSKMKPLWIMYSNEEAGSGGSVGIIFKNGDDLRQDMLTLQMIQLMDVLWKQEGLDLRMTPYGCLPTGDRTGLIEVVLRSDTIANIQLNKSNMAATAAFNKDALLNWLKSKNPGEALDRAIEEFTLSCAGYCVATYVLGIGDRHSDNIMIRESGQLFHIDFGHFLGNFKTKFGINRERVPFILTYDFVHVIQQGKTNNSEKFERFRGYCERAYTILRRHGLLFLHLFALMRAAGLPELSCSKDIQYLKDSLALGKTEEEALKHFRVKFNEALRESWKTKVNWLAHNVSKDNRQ
T1 sequence (P27986 whole entry partner, canonical isoform): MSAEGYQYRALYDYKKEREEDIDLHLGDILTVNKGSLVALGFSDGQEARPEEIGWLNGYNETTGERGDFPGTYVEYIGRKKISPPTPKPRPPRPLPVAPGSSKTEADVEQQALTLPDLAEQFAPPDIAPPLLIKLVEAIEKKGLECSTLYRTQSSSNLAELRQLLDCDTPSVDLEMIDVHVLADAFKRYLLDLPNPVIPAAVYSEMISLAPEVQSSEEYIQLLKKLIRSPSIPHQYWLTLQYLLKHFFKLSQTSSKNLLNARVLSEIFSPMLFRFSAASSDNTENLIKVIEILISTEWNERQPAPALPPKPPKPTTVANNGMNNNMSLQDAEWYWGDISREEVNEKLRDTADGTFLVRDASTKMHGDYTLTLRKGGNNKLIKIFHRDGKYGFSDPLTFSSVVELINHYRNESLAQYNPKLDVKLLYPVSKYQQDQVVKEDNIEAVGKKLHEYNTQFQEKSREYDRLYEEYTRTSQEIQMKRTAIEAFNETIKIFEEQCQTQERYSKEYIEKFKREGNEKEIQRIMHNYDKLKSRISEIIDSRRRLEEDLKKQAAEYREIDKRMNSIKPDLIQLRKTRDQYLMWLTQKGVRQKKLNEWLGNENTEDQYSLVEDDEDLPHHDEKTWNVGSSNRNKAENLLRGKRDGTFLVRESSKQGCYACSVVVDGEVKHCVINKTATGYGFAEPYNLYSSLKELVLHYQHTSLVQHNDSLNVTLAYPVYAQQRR
Protocol: PI3K Isoform Inhibition Assay (p110 Alpha, Beta, Gamma, Delta: α, β, γ, δ)
PI3K enzymatic activity was assayed by measuring the amount of product phosphatidylinositol 3,4,5-phosphate (PIP3) formed from substrate 4,5 phosphatidylinositol 4,5-phosphate (PIP2) using a fluorescence polarization displacement assay. The decrease in fluorescence polarization of a fluorescent PIP3 probe is measured as it is displaced from a PIP3-binding protein GRP-1 detector by PI3K-catalyzed product. […] The kinase reactions were initiated by the addition of 40 ng/mL p110α/p85α, 300 ng/mL p110β/p85α, 40 ng/mL p110γ, or 40 ng/mL p110δ/p85α (Upstate Group, Millipore; Dundee, UK), and 10 μM PIP2 (Echelon Biosciences) to the wells. […] After 60 minutes of incubation at room temperature to allow equilibration of labeled and unlabeled PIP3 binding, the parallel and perpendicular components of the fluorescence emissions from each sample were measured at an excitation wavelength of 530 nm and an emission wavelength of 590 nm using an Envision fluorescent plate reader with a rhodamine filter (PerkinElmer Life and Analytical Sciences; Wellesley, Mass.). The assay is capable of detecting 0.1-2.0 μM PIP3 product. The IC50 values were obtained by fitting the dose-dependent inhibition data to a 4-parameter equation using Assay Explorer software (MDL, San Ramon, Calif.).
The Formula I compound was serially diluted in 100% DMSO. The kinase reaction was incubated for 1 h at room temperature, and the reaction was terminated by the addition of PBS. IC50 values were subsequently determined using sigmoidal dose-response curve fit (variable slope).
HT baculovirus expression system (GIBCO/BRL), and then purified for use in biochemical assays. The four Class I PI 3-kinases are cloned into baculovirus vectors as follows: […]

[2] = test system: CD69 positive cells that are also CD20 positive, stimulated by anti-IgM, in human whole blood; assay: CD69 whole blood assay (human whole blood, anti-IgM stimulated); format: cell-based; settings: read-out: IC50 in the CD69 Whole Blood Assay
Protocol: Human blood is obtained from healthy volunteers, with the following restrictions: 1 week drug-free, non-smokers. Blood (approximately 20 mls to test 8 compounds) is collected by venipuncture into Vacutainer tubes with sodium heparin.
Solutions of Formula I compounds at 1000 or 2000 μM in PBS (20×), are diluted by three-fold serial dilutions in 10% DMSO in PBS for a nine point dose-response curve. An aliquot of 5.5 μl of each compound is added in duplicate to a 2 ml 96-well plate; 5.5 μl of 10% DMSO in PBS is added as control and no-stimulus wells. Human whole blood—HWB (100 μl) is added to each well. After mixing the plates are incubated at 37° C., 5% CO2, 100% humidity for 30 minutes. Goat F(ab′)2 anti-human IgM (10 μl of a […] solution, 50 μg/ml final) is added to each well (except the no-stimulus wells) with mixing and the plates are incubated for an additional 20 hours. At the end of the 20 hour incubation, samples are incubated with florescent labeled antibodies for 30 minutes, at 37° C., 5% CO2, 100% humidity. Include induced control, unstained and single stains for compensation adjustments and initial voltage settings. Samples are then lysed with Pharmingen Lyse according to the manufacturer's instructions. Samples are then transferred to a 96 well plate suitable to be run on the AMS 96 well system on the BD Calibur FACs machine. Data acquired and Mean Fluorescence Intensity values were obtained using Cell Quest Software. Results are initially analyzed by FACS analysis software (Flow Jo). […] The IC50 values are calculated by Activityl)ase using Xlfit version 3, equation 201.

[3] = concentration decreasing by 50% the percent CD69 positive of CD20 positive cells stimulated by anti-IgM, 20 hours

Row | SMILES | IC50 [1] | IC50 p110 alpha/IC50 p110 delta [1] | IC50 [2, 3] | IC50 ([2]; 20 h)
1 | Cc1nc2ccccc2n1-c1nc(N2CCOCC2)c2oc(CN3CCN(C(C)(C)C(N)=O)CC3)cc2n1 [Example 240, 2-methyl-2-(4-((2-(2-methyl-1H-benzo[d]imidazol-1-yl)-4-morpholinofuro[3,2-d]pyrimidin-6-yl)methyl)piperazin-1-yl)propanamide] | 2.74 nM | 64 | 17.8 nM | –
2 | CCc1nc2ccccc2n1-c1nc(N2CCOCC2)c2nc(CN3CCC(C4COC4)CC3)n(C)c2n1 [Example 314, 4-(2-(2-ethyl-1H-benzo[d]imidazol-1-yl)-9-methyl-8-((4-(oxetan-3-yl)piperidin-1-yl)methyl)-9H-purin-6-yl)morpholine] | – | – | 44.1 nM | –
3 | CCc1nc2ccccc2n1-c1nc(N2CCOCC2)c2nc(CN3CC([C@@H](O)C(C)C)C3)n(C)c2n1 [Example 388, (S)-1-(1-((2-(2-ethyl-1H-benzo[d]imidazol-1-yl)-9-methyl-6-morpholino-9H-purin-8-yl)methyl)azetidin-3-yl)-2-methylpropan-1-ol] | – | – | 51.1 nM | –
4 | Cn1c(CN2CCN(C(C)(C)C)CC2)nc2c(N3CCOCC3)nc(-n3c(C4CC4)nc4ccccc43)nc21 [Example 403, 4-(8-((4-tert-butylpiperazin-1-yl)methyl)-2-(2-cyclopropyl-1H-benzo[d]imidazol-1-yl)-9-methyl-9H-purin-6-yl)morpholine] | – | – | 22 nM | –
5 | Cc1nc2ccccc2n1-c1nc(N2CCOCC2)c2nc(CN3CCN(C(C)(C)C(N)=O)CC3)n(C)c2n1 [Example 406, 2-methyl-2-(4-((9-methyl-2-(2-methyl-1H-benzo[d]imidazol-1-yl)-6-morpholino-9H-purin-8-yl)methyl)piperazin-1-yl)propanamide] | – | – | 20.6 nM | –
6 | Cn1c(CN2CCN(C(C)(C)CO)CC2)nc2c(N3CCOCC3)nc(-n3c(CCO)nc4ccccc43)nc21 [Example 427, 2-(4-((2-(2-(2-hydroxyethyl)-1H-benzo[d]imidazol-1-yl)-9-methyl-6-morpholino-9H-purin-8-yl)methyl)piperazin-1-yl)-2-methylpropan-1-ol] | – | – | 56.7 nM | –
7 | CNc1nc2ccccc2n1-c1nc(N2CCOCC2)c2nc(CN3CCN(C(C)(C)C)CC3)n(C)c2n1 [Example 428, 1-(8-((4-tert-butylpiperazin-1-yl)methyl)-9-methyl-6-morpholino-9H-purin-2-yl)-N-methyl-1H-benzo[d]imidazol-2-amine] | – | – | 34.2 nM | –
8 | Cn1c(CN2CCN(C(C)(C)C(N)=O)CC2)nc2c(N3CCOCC3)nc(-n3c(C4CC4)nc4ccccc43)nc21 [Example 438, 2-(4-((2-(2-cyclopropyl-1H-benzo[d]imidazol-1-yl)-9-methyl-6-morpholino-9H-purin-8-yl)methyl)piperazin-1-yl)-2-methylpropanamide] | – | – | 65.9 nM | –
9 | CC(C)c1nc2ccccc2n1-c1nc(N2CCOCC2)c2nc(CN3CCN(C(C)(C)CO)CC3)[nH]c2n1 [Example 490, 2-(4-((2-(2-isopropyl-1H-benzo[d]imidazol-1-yl)-6-morpholino-9H-purin-8-yl)methyl)piperazin-1-yl)-2-methylpropan-1-ol] | 2.38 nM | 111 | 38.3 nM | –
10 | CN(C)C1CCN(Cc2cc3nc(-c4ccc(O)c5nccn45)nc(N4CCOCC4)c3s2)CC1 [Example 689, 5-(6-((4-(dimethylamino)piperidin-1-yl)methyl)-4-morpholinothieno[3,2-d]pyrimidin-2-yl)imidazo[1,2-a]pyridin-8-ol] | 25.8 nM | 23 | – | 29 nM
11 | Cc1nc2ccccc2n1-c1nc(N2CCOCC2)c2nc(CN3CCC(C(C)(C)O)CC3)[nH]c2n1 [Example 702, 2-(1-((2-(2-methyl-1H-benzo[d]imidazol-1-yl)-6-morpholino-9H-purin-8-yl)methyl)piperidin-4-yl)propan-2-ol] | – | – | 28.6 nM | –
